Results: ChEMBL document CHEMBL4673355, “Thiacalixarene based quaternary ammonium salts as promising antibacterial agents” (Bioorg Med Chem, 2021)
Converted amounts (≈) assume the structure as drawn. “And” between values parts separate entries of the source, which are not always exact repeats. Equal values may be shown once.

What was measured:
[1] = tested on: Staphylococcus aureus; assay: Antibacterial activity against Staphylococcus aureus ATCC 29213 by CLSI broth microdilution method; assay type: functional
[2] = tested on: Staphylococcus aureus; assay: Antibacterial activity against Staphylococcus aureus ATCC 29223 by CLSI broth microdilution method; assay type: functional
[3] = tested on: Enterococcus faecalis; assay: Antibacterial activity against Enterococcus faecalis ATCC 29212 by CLSI broth microdilution method; assay type: functional
[4] = tested on: Escherichia coli; assay: Antibacterial activity against Escherichia coli ATCC 25922 by CLSI broth microdilution method; assay type: functional
[5] = tested on: Pseudomonas aeruginosa; assay: Antibacterial activity against Pseudomonas aeruginosa ATCC 27853 by CLSI broth microdilution method; assay type: functional
[6] = tested on: Staphylococcus aureus; assay: Bactericidal activity against Staphylococcus aureus ATCC 29213; assay type: functional
[7] = tested on: Staphylococcus aureus; assay: Bactericidal activity against Staphylococcus aureus ATCC 29223; assay type: functional
[8] = tested on: Enterococcus faecalis; assay: Bactericidal activity against Enterococcus faecalis ATCC 29212; assay type: functional
[9] = tested on: Escherichia coli; assay: Bactericidal activity against Escherichia coli ATCC 25922; assay type: functional
[10] = tested on: Proteus sp.; assay: Antibacterial activity against […] resistant Proteus sp. clinical isolate 17 assessed as reduction in bacterial growth incubated for 24 hrs by CLSI broth microdilution method; assay type: functional; settings: Proteus sp. (in: enterobacteria)
[11] = tested on: Klebsiella sp.; assay: Antibacterial activity against […] resistant Klebsiella sp. clinical isolate 12 assessed as reduction in bacterial growth incubated for 24 hrs by CLSI broth microdilution method; assay type: functional
[12] = tested on: Klebsiella sp.; assay: Antibacterial activity against […] resistant Klebsiella sp. clinical isolate 11 assessed as reduction in bacterial growth incubated for 24 hrs by CLSI broth microdilution method; assay type: functional
[13] = tested on: Pseudomonas; assay: Antibacterial activity against methicillin- resistant Pseudomonas spp. clinical isolate 6 assessed as reduction in bacterial growth incubated for 24 hrs by CLSI broth microdilution method; assay type: functional
[14] = tested on: Acinetobacter; assay: Antibacterial activity against […] resistant Acinetobacter spp. clinical isolate 5 assessed as reduction in bacterial growth incubated for 24 hrs by CLSI broth microdilution method; assay type: functional
[15] = tested on: Acinetobacter; assay: Antibacterial activity against […] resistant Acinetobacter spp. clinical isolate 3 assessed as reduction in bacterial growth incubated for 24 hrs by CLSI broth microdilution method; assay type: functional
[16] = tested on: Acinetobacter; assay: Antibacterial activity against […] resistant Acinetobacter spp. clinical isolate 1 assessed as reduction in bacterial growth incubated for 24 hrs by CLSI broth microdilution method; assay type: functional
[17] = Antibacterial activity against […] resistant Moraxella sp.829 clinical isolate assessed as reduction in bacterial growth incubated for 24 hrs by CLSI broth microdilution method; assay type: functional; settings: Moraxella catarrhalis
[18] = Antibacterial activity against […] resistant Moraxella sp.765 clinical isolate assessed as reduction in bacterial growth incubated for 24 hrs by CLSI broth microdilution method; assay type: functional; settings: Moraxella catarrhalis
[19] = Antibacterial activity against […] resistant Moraxella sp.764 clinical isolate assessed as reduction in bacterial growth incubated for 24 hrs by CLSI broth microdilution method; assay type: functional; settings: Moraxella catarrhalis
[20] = tested on: Staphylococcus aureus; assay: Antibacterial activity against methicillin- resistant Staphylococcus aureus 25 clinical isolate assessed as reduction in bacterial growth incubated for 24 hrs by CLSI broth microdilution method; assay type: functional
[21] = tested on: Staphylococcus aureus; assay: Antibacterial activity against methicillin- resistant Staphylococcus aureus 2020 clinical isolate assessed as reduction in bacterial growth incubated for 24 hrs by CLSI broth microdilution method; assay type: functional
[22] = tested on: Staphylococcus intermedius; assay: Antibacterial activity against methicillin- resistant Staphylococcus intermedius 1143 clinical isolate assessed as reduction in bacterial growth incubated for 24 hrs by CLSI broth microdilution method; assay type: functional
[23] = tested on: Staphylococcus aureus; assay: Antibacterial activity against methicillin- resistant Staphylococcus aureus 983 clinical isolate assessed as reduction in bacterial growth incubated for 24 hrs by CLSI broth microdilution method; assay type: functional
[24] = tested on: Staphylococcus aureus; assay: Antibacterial activity against methicillin- resistant Staphylococcus aureus 967 clinical isolate assessed as reduction in bacterial growth incubated for 24 hrs by CLSI broth microdilution method; assay type: functional
[25] = tested on: Staphylococcus haemolyticus; assay: Antibacterial activity against methicillin- resistant Staphylococcus haemolyticus 837 assessed as reduction in bacterial growth incubated for 24 hrs by CLSI broth microdilution method; assay type: functional
[26] = Selectivity index, ratio of CC50 for human HSF cells to MIC for Pseudomonas aeruginosa ATCC 27853; assay type: toxicity; settings: for selectivity ratio: HSF cells
[27] = Selectivity index, ratio of CC50 for human HSF cells to MIC for Klebsiella pneumoniae ATCC 1813; assay type: toxicity; settings: for selectivity ratio: HSF cells
[28] = tested on: Pseudomonas aeruginosa; assay: Bactericidal activity against Pseudomonas aeruginosa ATCC 27853 assessed as reduction in bacterial growth incubated for 24 hrs followed by replating on MH broth and further incubated for 24 hrs by CLSI broth microdilution method; assay type: functional
[29] = tested on: Klebsiella pneumoniae; assay: Bactericidal activity against Klebsiella pneumoniae ATCC 1813 assessed as reduction in bacterial growth incubated for 24 hrs followed by replating on MH broth and further incubated for 24 hrs by CLSI broth microdilution method; assay type: functional
[30] = tested on: Escherichia coli; assay: Bactericidal activity against Escherichia coli ATCC 25922 assessed as reduction in bacterial growth incubated for 24 hrs followed by replating on MH broth and further incubated for 24 hrs by CLSI broth microdilution method; assay type: functional
[31] = tested on: Bacillus subtilis; assay: Bactericidal activity against Bacillus subtilis 168 assessed as reduction in bacterial growth incubated for 24 hrs followed by replating on MH broth and further incubated for 24 hrs by CLSI broth microdilution method; assay type: functional; settings: Bacillus subtilis, 168, 24 h
[32] = tested on: Staphylococcus epidermidis; assay: Bactericidal activity against Staphylococcus epidermidis assessed as reduction in bacterial growth incubated for 24 hrs followed by replating on MH broth and further incubated for 24 hrs by CLSI broth microdilution method; assay type: functional; settings: Staphylococcus epidermidis, read-out: MBC
[33] = tested on: Staphylococcus aureus; assay: Bactericidal activity against Staphylococcus aureus ATCC 29213 assessed as reduction in bacterial growth incubated for 24 hrs followed by replating on MH broth and further incubated for 24 hrs by CLSI broth microdilution method; assay type: functional; settings: Staphylococcus aureus, ATCC 29213; time 48 hrs; read-out: MBC
[34] = tested on: Staphylococcus epidermidis; assay: Antibacterial activity against Staphylococcus epidermidis assessed as reduction in bacterial growth incubated for 24 hrs by CLSI broth microdilution method; assay type: functional
[35] = tested on: Bacillus subtilis; assay: Antibacterial activity against Bacillus subtilis 168 assessed as reduction in bacterial growth incubated for 24 hrs by CLSI broth microdilution method; assay type: functional
[36] = tested on: Pseudomonas aeruginosa; assay: Antibacterial activity against Pseudomonas aeruginosa ATCC 27853 assessed as reduction in bacterial growth incubated for 24 hrs by CLSI broth microdilution method; assay type: functional
[37] = Selectivity index, ratio of CC50 for human HSF cells to MIC for Escherichia coli ATCC 25922; assay type: toxicity
[38] = Selectivity index, ratio of CC50 for human HSF cells to MIC for Bacillus subtilis 168; assay type: toxicity; settings: HSF cells
[39] = Selectivity index, ratio of CC50 for human HSF cells to MIC for Staphylococcus epidermidis; assay type: toxicity; settings: HSF cells
[40] = Selectivity index, ratio of CC50 for human HSF cells to MIC for Staphylococcus aureus ATCC 29213; assay type: toxicity; settings: HSF cells
[41] = Cytotoxicity against human HSF cells assessed as reduction in cell viability incubated for 72 hrs by MTT assay; assay type: cell-based, HSF (VGS)
[42] = tested on: Escherichia coli; assay: Antibacterial activity against Escherichia coli ATCC 25922 assessed as reduction in bacterial growth incubated for 24 hrs by CLSI broth microdilution method; assay type: functional; settings: Escherichia coli, ATCC 25922, 24 h, read-out: MIC
[43] = tested on: Staphylococcus aureus; assay: Antibacterial activity against Staphylococcus aureus ATCC 29213 assessed as reduction in bacterial growth incubated for 24 hrs by CLSI broth microdilution method; assay type: functional; settings: Staphylococcus aureus, ATCC 29213, 24 h, read-out: MIC
[44] = tested on: Klebsiella pneumoniae; assay: Antibacterial activity against Klebsiella pneumoniae ATCC 1813 assessed as reduction in bacterial growth incubated for 24 hrs by CLSI broth microdilution method; assay type: functional; settings: Klebsiella pneumoniae, ATCC 1813, 24 h, read-out: MIC
[45] = Enterococcus faecalis, ATCC 29212, read-out: MIC
[46] = Staphylococcus epidermidis, read-out: MIC
[47] = Bacillus subtilis, 168, 24 h, read-out: MIC
[48] = Pseudomonas aeruginosa, ATCC 27853, 24 h, read-out: MIC

## N=C(N)NCCc1cc2c(O)c(c1)Cc1cc(CCNC(=N)N)cc(c1O)Cc1cc(CCNC(=N)N)cc(c1O)Cc1cc(CCNC(=N)N)cc(c1O)C2.O=C(O)C(F)(F)F.O=C(O)C(F)(F)F.O=C(O)C(F)(F)F.O=C(O)C(F)(F)F
[1]
  MIC: 8 µg/mL
[2]
  MIC: 8 µg/mL
[3]; [45]
  MIC: 32 µg/mL
[4]
  MIC: 4 µg/mL
[5]
  MIC: 32 µg/mL
[6]
  MBC: 256 µg/mL
[7]
  MBC: 256 µg/mL
[8]
  MBC: > 256 µg/mL
[9]
  MBC: 256 µg/mL

## CC(C)(C)c1cc2c(OCCCNC(=N)N)c(c1)Cc1cc(C(C)(C)C)cc(c1OCCCNC(=N)N)Cc1cc(C(C)(C)C)cc(c1OCCCNC(=N)N)Cc1cc(C(C)(C)C)cc(c1OCCCNC(=N)N)C2.O=C(O)C(F)(F)F.O=C(O)C(F)(F)F.O=C(O)C(F)(F)F.O=C(O)C(F)(F)F
[3]
  MIC: 4 µg/mL and 8 µg/mL
[3]; [45]
  MIC: 8 µg/mL

## CCCCCCCCCC[N+](C)(C)CCCNC(=O)COc1c2cc(C(C)(C)C)cc1Sc1cc(C(C)(C)C)cc(c1OCC(=O)NCCC[N+](C)(C)CCCCCCCCCC)Sc1cc(C(C)(C)C)cc(c1OCC(=O)NCCC[N+](C)(C)CCCCCCCCCC)Sc1cc(C(C)(C)C)cc(c1OCC(=O)NCCC[N+](C)(C)CCCCCCCCCC)S2.[Cl-].[Cl-].[Cl-].[Cl-]
[10]
  MIC: > 64 µg/mL
[11]
  MIC: > 64 µg/mL
[12]
  MIC: > 64 µg/mL
[13]
  MIC: > 64 µg/mL
[14]
  MIC: > 64 µg/mL
[15]
  MIC: > 64 µg/mL
[16]
  MIC: > 64 µg/mL
[17]
  MIC: > 64 µg/mL
[18]
  MIC: > 64 µg/mL
[19]
  MIC: > 64 µg/mL
[20]
  MIC: 4 µg/mL
[21]
  MIC: 32 µg/mL
[22]
  MIC: 2 µg/mL
[23]
  MIC: 32 µg/mL
[24]
  MIC: 32 µg/mL
[25]
  MIC: 32 µg/mL
[26]
  Ratio: < 0.5
  selectivity ratio: 0.5
[27]
  Ratio: 1 and 3
[28]
  MBC: > 64 µg/mL
[29]
  MBC: 32 µg/mL
[30]
  MBC: 64 µg/mL
[31]
  MBC: 32 µg/mL
[32]
  MBC: 16 µg/mL
[33]
  MBC: 8 µg/mL
[34]
  MIC: 4 µg/mL
[34]; [46]
  MIC: 8 µg/mL
[35]
  MIC: 4 µg/mL
[35]; [47]
  MIC: 4 µg/mL
[36]; 24 h
  MIC: >64 µg/mL
[36]; [48]
  MIC: 64 µg/mL

## [H]/N=C(\N/C(=N/[H])NCCCCCCNC(=N)NC(=N)Nc1ccc(Cl)cc1)Nc1ccc(Cl)cc1 [CHLORHEXIDINE]
[26]
  selectivity ratio: 1.37
[27]
  selectivity ratio: 2.74
[37]
  selectivity ratio: 5.48
[38]
  selectivity ratio: 2.74
[39]
  selectivity ratio: 5.48
[40]
  selectivity ratio: 2.74
[41]
  CC50 at 72 h: 5.48 µg/mL (≈ 10.8 µM)
[42]
  MIC: 1 µg/mL (≈ 1.98 µM)
[43]
  MIC: 2 µg/mL (≈ 3.96 µM)
[34]; [46]
  MIC: 1 µg/mL (≈ 1.98 µM)
[35]; [47]
  MIC: 2 µg/mL (≈ 3.96 µM)
[44]
  MIC: 2 µg/mL (≈ 3.96 µM)
[36]; [48]
  MIC: 4 µg/mL (≈ 7.91 µM)

## CCCCCCCCCCCCCC(=O)NCCC[N+](C)(C)Cc1ccccc1.[Cl-] [MIRAMISTIN]
[10]
  MIC: > 64 µg/mL
[11]
  MIC: > 64 µg/mL
[12]
  MIC: 64 µg/mL
[13]
  MIC: > 64 µg/mL
[14]
  MIC: > 64 µg/mL
[15]
  MIC: 64 µg/mL
[16]
  MIC: 64 µg/mL
[17]
  MIC: 32 µg/mL
[18]
  MIC: 64 µg/mL
[19]
  MIC: 64 µg/mL
[20]
  MIC: 0.5 µg/mL
[21]
  MIC: 8 µg/mL
[22]
  MIC: 8 µg/mL
[23]
  MIC: 4 µg/mL
[24]
  MIC: 16 µg/mL
[25]
  MIC: 64 µg/mL
[26]
  selectivity ratio: 0.15
[27]
  selectivity ratio: 0.15
[37]
  selectivity ratio: 0.15
[38]
  selectivity ratio: 1.2
[39]
  selectivity ratio: 2.4
[40]
  selectivity ratio: 0.6
[41]
  CC50 at 72 h: 9.4 µg/mL
[28]
  MBC: 64 µg/mL
[29]
  MBC: 64 µg/mL
[30]
  MBC: 64 µg/mL
[31]
  MBC: 64 µg/mL
[32]
  MBC: 32 µg/mL
[33]
  MBC: 32 µg/mL
[42]
  MIC: 64 µg/mL
[43]
  MIC: 16 µg/mL
[34]; [46]
  MIC: 4 µg/mL
[35]; [47]
  MIC: 8 µg/mL
[44]
  MIC: 64 µg/mL
[36]; [48]
  MIC: 64 µg/mL
